Our source for the Ki and EC50 values is patent US10781204B2, “TYK2 inhibitors and uses thereof” (Nimbus Lakshmi, Inc., priority 2015, dated 2020).

Broadly, the Ki is a measure of affinity in units of concentration, obtained from inhibition or displacement. The EC50 is the concentration giving half of the maximal effect.

In assay [1] the target is JAK2 (Homo sapiens (Human), UniProt O60674). Description: JAK2 radioactive kinase assay. Particulars: ATP 10 μM. In kind it is biochemical. The method in brief:
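Radiometric assay in Hepes pH 7.5, MgCl2, EGTA, Brij35, BSA, DTT, 1% DMSO, with 10 μM [33P]ATP, 120 min at room temp; P81 paper capture and counting. […]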

Assay [2] concerns Tyk2-pSTAT4 (IL-12 induced pSTAT4). Description: IL-12 induced pSTAT4 in human PBMC. It counts as cell-based. The conditions noted are these: 1.7 ng/mL IL-12, 30 minutes. An outline of the steps: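 pSTAT4 and total STAT4 quantified by MSD in cell lysates after 30 minutes of 1.7 ng/mL IL-12 stimulation. Beforehand, compound (0.1% DMSO final) sat 1 hr at 37 C on 200,000 thawed buffy-coat PBMC per well in serum-containing medium.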

Assay [3] relates to JAK2-pSTAT5 (GM-CSF induced pSTAT5). Description: GM-CSF induced pSTAT5 in human PBMC. Particulars: 5 ng/mL GM-CSF. It counts as cell-based. The method in brief:
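Thawed human PBMC, 200,000 per well in serum-containing medium, were preincubated 1 hr at 37 C with compound in 0.1% DMSO. GM-CSF at 5 ng/mL final was added for 20 minutes, then pSTAT5 and total STAT5 in lysates were measured by MSD immunoassay.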

Assay [4] concerns the target TYK2 (Homo sapiens (Human), UniProt P29597). Description: Tyk2 radioactive kinase assay. The conditions noted are these: ATP 10 μM. In kind it is biochemical. An outline of the steps:
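Recombinant human TYK2 (Invitrogen) was mixed with 20 μM peptide substrate in a buffer of 20 mM Hepes pH 7.5, 10 mM MgCl2, 1 mM EGTA, 0.02% Brij35, 0.02 mg/mL BSA, 0.1 mM […], 2 mM DTT and 1% DMSO, and compounds in DMSO were added. Adding ^33P-ATP (10 μM ATP) started the reaction, which ran 120 min at room temperature. Mixtures were then spotted onto P81 ion-exchange paper, washed thoroughly in 0.75% phosphoric acid, and counted for radioactivity.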

Chain of TYK2 (P29597 whole entry): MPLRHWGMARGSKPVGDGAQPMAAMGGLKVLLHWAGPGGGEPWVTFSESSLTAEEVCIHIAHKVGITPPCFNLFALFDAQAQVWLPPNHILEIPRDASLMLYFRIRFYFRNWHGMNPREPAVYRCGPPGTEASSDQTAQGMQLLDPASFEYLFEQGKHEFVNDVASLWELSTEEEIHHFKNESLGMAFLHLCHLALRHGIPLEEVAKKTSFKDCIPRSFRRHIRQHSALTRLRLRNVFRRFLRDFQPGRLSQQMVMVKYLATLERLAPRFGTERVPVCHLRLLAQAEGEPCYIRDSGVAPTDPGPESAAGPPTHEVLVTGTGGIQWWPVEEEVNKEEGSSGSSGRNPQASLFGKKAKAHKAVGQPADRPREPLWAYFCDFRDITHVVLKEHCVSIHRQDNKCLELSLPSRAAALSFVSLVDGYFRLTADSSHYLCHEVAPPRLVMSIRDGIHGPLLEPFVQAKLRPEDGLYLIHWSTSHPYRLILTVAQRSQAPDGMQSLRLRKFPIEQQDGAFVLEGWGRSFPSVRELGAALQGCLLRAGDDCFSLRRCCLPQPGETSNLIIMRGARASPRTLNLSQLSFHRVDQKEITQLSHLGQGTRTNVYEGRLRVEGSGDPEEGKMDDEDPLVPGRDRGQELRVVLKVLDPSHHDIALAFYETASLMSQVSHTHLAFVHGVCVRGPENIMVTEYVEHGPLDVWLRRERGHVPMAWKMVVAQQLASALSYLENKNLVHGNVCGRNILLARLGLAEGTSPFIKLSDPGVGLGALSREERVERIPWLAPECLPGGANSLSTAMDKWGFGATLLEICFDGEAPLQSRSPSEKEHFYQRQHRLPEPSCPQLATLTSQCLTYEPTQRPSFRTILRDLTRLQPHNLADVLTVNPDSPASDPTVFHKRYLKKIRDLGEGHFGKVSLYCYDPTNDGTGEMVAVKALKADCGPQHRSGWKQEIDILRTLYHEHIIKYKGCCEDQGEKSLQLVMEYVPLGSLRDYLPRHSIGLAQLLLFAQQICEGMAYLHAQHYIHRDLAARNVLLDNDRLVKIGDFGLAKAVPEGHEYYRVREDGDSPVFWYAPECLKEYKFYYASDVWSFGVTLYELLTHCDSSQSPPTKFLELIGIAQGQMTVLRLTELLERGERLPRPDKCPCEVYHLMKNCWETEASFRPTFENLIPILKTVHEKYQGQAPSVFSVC
Chain of JAK2 (O60674 whole entry): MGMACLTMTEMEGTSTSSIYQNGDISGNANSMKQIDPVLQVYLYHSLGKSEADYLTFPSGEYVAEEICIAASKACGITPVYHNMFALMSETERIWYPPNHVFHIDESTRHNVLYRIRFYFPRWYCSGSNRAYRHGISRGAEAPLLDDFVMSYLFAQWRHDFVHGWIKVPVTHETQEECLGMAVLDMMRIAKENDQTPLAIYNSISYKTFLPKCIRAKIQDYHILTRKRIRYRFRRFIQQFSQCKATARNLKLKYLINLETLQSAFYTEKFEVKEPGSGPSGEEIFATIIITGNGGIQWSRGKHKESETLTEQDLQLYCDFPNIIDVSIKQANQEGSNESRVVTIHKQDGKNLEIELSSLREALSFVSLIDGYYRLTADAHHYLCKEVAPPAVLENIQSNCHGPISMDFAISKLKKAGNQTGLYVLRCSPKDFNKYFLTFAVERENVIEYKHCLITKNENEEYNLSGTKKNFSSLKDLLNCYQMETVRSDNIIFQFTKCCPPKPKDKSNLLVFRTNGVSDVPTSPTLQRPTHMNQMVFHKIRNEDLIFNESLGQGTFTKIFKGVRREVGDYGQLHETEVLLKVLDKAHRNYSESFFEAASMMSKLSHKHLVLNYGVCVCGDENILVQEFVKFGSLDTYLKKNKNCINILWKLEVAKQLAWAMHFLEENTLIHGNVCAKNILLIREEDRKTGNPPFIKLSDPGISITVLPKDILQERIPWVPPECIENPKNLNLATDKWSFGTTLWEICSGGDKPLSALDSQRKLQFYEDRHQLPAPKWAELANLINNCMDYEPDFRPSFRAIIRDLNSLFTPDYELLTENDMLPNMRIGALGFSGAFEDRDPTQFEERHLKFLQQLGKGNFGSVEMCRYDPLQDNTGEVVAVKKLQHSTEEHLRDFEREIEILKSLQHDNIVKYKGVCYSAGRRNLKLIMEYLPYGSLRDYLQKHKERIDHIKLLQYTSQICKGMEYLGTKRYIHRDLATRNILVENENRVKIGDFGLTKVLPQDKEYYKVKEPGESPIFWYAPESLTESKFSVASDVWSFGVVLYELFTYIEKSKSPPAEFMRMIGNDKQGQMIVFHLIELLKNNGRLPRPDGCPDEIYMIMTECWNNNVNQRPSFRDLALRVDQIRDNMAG

With `N#Cc1cccc(F)c1-c1cc(-n2ccc(N3CC[C@H](O)C3=O)n2)c2c(n1)CNC2=O` [I-148, (S)-3-fluoro-2-(4-(3-(3-hydroxy-2-oxopyrrolidin-1-yl)-1H-pyrazol-1-yl)-5-oxo-6,7-dihydro-5H-pyrrolo[3,4-b]pyridin-2-yl)benzonitrile], the Ki in assay [1] was at least 1000 nM; in assay [4] it was 10 to 100 nM. Further, the EC50 in assay [2] (Homo sapiens, PBMC, 0.5 h) was over 2000 nM; in assay [3] (Homo sapiens, PBMC, 20 min), over 2000 nM.
For the molecule `N#Cc1cccc(F)c1-c1cc(-n2ccc(N3C[C@H](O)C[C@H]3CO)n2)c2c(n1)CNC2=O` [I-214, 3-fluoro-2-(4-(3-((2S,4R)-4-hydroxy-2-(hydroxymethyl)pyro-lidin-1-yl)-1H-pyrazol-1-yl)-5-oxo-6,7-dihydro-5H-pyrrolo[3,4-b]pyridin-2-yl)benzonitrile], the results for the Ki in assay [1] and in assay [4] were 10 to 100 nM and 0.1 to 10 nM, respectively. Besides, the EC50 was 100 to 2000 nM in assay [2] (Homo sapiens, PBMC, 0.5 h) and over 2000 nM in assay [3] (Homo sapiens, PBMC, 20 min).
The corresponding values for `N#Cc1cccc(F)c1-c1cc(-n2ccc(N3CCC[C@H](N4CCOCC4)C3)n2)c2c(n1)CNC2=O` [I-157, (S)-3-fluoro-2-(4-(3-(3-morpholinopiperidin-1-yl)-1H-pyrazol-1-yl)-5-oxo-6,7-dihydro-5H-pyrrolo[3,4-b]pyridin-2-yl)benzonitrile] are 10 to 100 nM, 0.1 to 10 nM, 100 to 2000 nM and over 2000 nM.
The corresponding values for `CCNC(=O)[C@H]1CCCN(c2ccn(-c3cc(-c4c(F)cccc4C#N)nc4c3C(=O)NC4)n2)C1` [I-171, (S)-1-(1-(2-(2-cyano-6-fluorophenyl)-5-oxo-6,7-dihydro-5H-pyrrolo[3,4-b]pyridin-4-yl)-1H-pyrazol-3-yl)-N-ethylpiperidine-3-carboxamide] are 10 to 100 nM, 0.1 to 10 nM, 100 to 2000 nM and over 2000 nM.
On to `N#Cc1cccc(F)c1-c1cc(-n2ccc(N3CC[C@@H](O)[C@@H](N4CCOCC4)C3)n2)c2c(n1)CNC2=O` [I-218, 3-fluoro-2-(4-(3-((3S,4R)-4-hydroxy-3-morpholinopiperidin-1-yl)-1H-pyrazol-1-yl)-5-oxo-6,7-dihydro-5H-pyrrolo[3,4-b]pyridin-2-yl)benzonitrile], for which the figures for the Ki in assay [1] and in assay [4] were 10 to 100 nM and 0.1 to 10 nM, respectively. For the same molecule, the EC50 is 100 to 2000 nM in assay [2] (Homo sapiens, PBMC, 0.5 h) and 100 to 2000 nM in assay [3] (Homo sapiens, PBMC, 20 min).
In the case of `[2H]C1([2H])N(c2ccn(-c3cc(-c4c(F)cccc4C#N)nc4c3C(=O)NC4)n2)C([2H])([2H])C(C)(O)C([2H])([2H])C1([2H])[2H]` (stereo not drawn) [I-186, 3-fluoro-2-(4-(3-(3-hydroxy-3-methylpiperidin-1-yl-2,2,4,4,5,5,6,6-d8)-1H-pyrazol-1-yl)-5-oxo-6,7-dihydro-5H-pyrrolo[3,4-b]pyridin-2-yl)benzonitrile], the Ki was 10 to 100 nM in assay [1] and 0.1 to 10 nM in assay [4]. Besides, the 50% effective concentration (EC50) is 100 to 2000 nM in assay [2] (Homo sapiens, PBMC, 0.5 h) and over 2000 nM in assay [3] (Homo sapiens, PBMC, 20 min).
For `N#Cc1cccc(F)c1-c1cc(-n2ccc(N3CCC[C@](O)(C(F)(F)F)C3)n2)c2c(n1)CNC2=O` [I-88, (R)-3-fluoro-2-(4-(3-(3-hydroxy-3-(trifluoromethyl)piperidin-1-yl)-1H-pyrazol-1-yl)-5-oxo-6,7-dihydro-5H-pyrrolo[3,4-b]pyridin-2-yl)benzonitrile] the same measures were 10 to 100 nM, 0.009 to 0.1 nM, 100 to 2000 nM and over 2000 nM.
Regarding `N#Cc1cccc(F)c1-c1cc(-n2ccc(N3CC[C@@H](C#N)[C@H](O)C3)n2)c2c(n1)CNC2=O` [I-217, (3S,4S)-1-(1-(2-(2-cyano-6-fluorophenyl)-5-oxo-6,7-dihydro-5H-pyrrolo[3,4-b]pyridin-4-yl)-1H-pyrazol-3-yl)-3-hydroxypiperidine-4-carbonitrile], the Ki in assay [1] and in assay [4] was 0.1 to 10 nM throughout. The EC50 in assay [2] (Homo sapiens, PBMC, 0.5 h) lay within 30 to 100 nM; in assay [3] (Homo sapiens, PBMC, 20 min), 100 to 2000 nM.
As to `CC1(C)[C@@H](O)CCN1c1ccn(-c2cc(-c3c(F)cccc3C#N)nc3c2C(=O)NC3)n1` [I-205, (S)-3-fluoro-2-(4-(3-(3-hydroxy-2,2-dimethylpyrrolidin-1-yl)-1H-pyrazol-1-yl)-5-oxo-6,7-dihydro-5H-pyrrolo[3,4-b]pyridin-2-yl)benzonitrile], the Ki in assay [1] lay within 10 to 100 nM; in assay [4], 0.1 to 10 nM. Besides, the EC50 was in the range of 30 to 100 nM in assay [2] (Homo sapiens, PBMC, 0.5 h) and 100 to 2000 nM in assay [3] (Homo sapiens, PBMC, 20 min).
For `N#Cc1cccc(F)c1-c1cc(-n2ccc(N3CCCC3=O)n2)c2c(n1)CNC2=O` [I-139, 3-fluoro-2-(5-oxo-4-(3-(2-oxopyrrolidin-1-yl)-1H-pyrazol-1-yl)-6,7-dihydro-5H-pyrrolo[3,4-b]pyridin-2-yl)benzonitrile] the same measures were 10 to 100 nM, 0.1 to 10 nM, 100 to 2000 nM and 100 to 2000 nM.
`CC1(C)[C@H](O)CCN1c1ccn(-c2cc(-c3c(F)cccc3C#N)nc3c2C(=O)NC3)n1` [I-204, (R)-3-fluoro-2-(4-(3-(3-hydroxy-2,2-dimethylpyrrolidin-1-yl)-1H-pyrazol-1-yl)-5-oxo-6,7-dihydro-5H-pyrrolo[3,4-b]pyridin-2-yl)benzonitrile]: the Ki was in the range of 10 to 100 nM in assay [1] and 0.1 to 10 nM in assay [4]. Further, the EC50 is 30 to 100 nM in assay [2] (Homo sapiens, PBMC, 0.5 h) and over 2000 nM in assay [3] (Homo sapiens, PBMC, 20 min).
In the case of `[2H]C1([2H])NC(=O)c2c(-n3ccc(N4CCC[C@@](C)(O)C4)n3)cc(-c3c(F)cccc3C#N)nc21` [I-111, (R)-3-fluoro-2-(4-(3-(3-hydroxy-3-methylpiperidin-1-yl)-1H-pyrazol-1-yl)-5-oxo-6,7-dihydro-5H-pyrrolo[3,4-b]pyridin-2-yl-7,7-d2)benzonitrile], the Ki lay in the range of 10 to 100 nM in assay [1] and 0.1 to 10 nM in assay [4]. The EC50 in assay [2] (Homo sapiens, PBMC, 0.5 h) is 30 to 100 nM; in assay [3] (Homo sapiens, PBMC, 20 min) it was 100 to 2000 nM.
For `N#Cc1cccc(F)c1-c1cc(-n2ccc(N3CC[C@]4(CCNC4=O)C3)n2)c2c(n1)CNC2=O` [I-165, (R)-3-fluoro-2-(5-oxo-4-(3-(6-oxo-2,7-diazaspiro[4.4]nonan-2-yl)-1H-pyrazol-1-yl)-6,7-dihydro-5H-pyrrolo[3,4-b]pyridin-2-yl)benzonitrile] the same measures were 0.1 to 10 nM, 0.1 to 10 nM, 100 to 2000 nM and 100 to 2000 nM.
On to `CO[C@@H]1CCN(c2ccn(-c3cc(-c4c(F)cccc4C#N)nc4c3C(=O)NC4)n2)C[C@]1(C)O` [I-228, 3-fluoro-2-(4-(3-((3S,4R)-3-hydroxy-4-methoxy-3-methylpiperidin-1-yl)-1H-pyrazol-1-yl)-5-oxo-6,7-dihydro-5H-pyrrolo[3,4-b]pyridin-2-yl)benzonitrile], for which the figures for the Ki in assay [1] and in assay [4] were 10 to 100 nM and 0.1 to 10 nM, respectively. For the same molecule, the EC50 in assay [2] and in assay [3] (20 minutes) was 100 to 2000 nM each time.
Take `N#Cc1cccc(F)c1-c1cc(-n2ccc(N3CCOC[C@@H]3CO)n2)c2c(n1)CNC2=O` [I-163, (S)-3-fluoro-2-(4-(3-(3-(hydroxymethyl)morpholino)-1H-pyrazol-1-yl)-5-oxo-6,7-dihydro-5H-pyrrolo[3,4-b]pyridin-2-yl)benzonitrile]: the inhibitory constant (Ki) in assay [1] and in assay [4] was 0.1 to 10 nM in each case. The EC50 in assay [2] (Homo sapiens, PBMC, 0.5 h) was in the range of 100 to 2000 nM; in assay [3] (Homo sapiens, PBMC, 20 min) it was 100 to 2000 nM.
